ChEMBL document CHEMBL1129457, “Indole inhibitors of human nonpancreatic secretory phospholipase A2. 1. Indole-3-acetamides” (J Med Chem, 1996)

Experiments:
[1] = target: T1, Phospholipase A2, membrane associated (Homo sapiens, UniProt P14555); test: Inhibition of Human Nonpancreatic Secretory Phospholipase A2 through Chromogenic assay; format: functional
T1 sequence (P14555 whole entry): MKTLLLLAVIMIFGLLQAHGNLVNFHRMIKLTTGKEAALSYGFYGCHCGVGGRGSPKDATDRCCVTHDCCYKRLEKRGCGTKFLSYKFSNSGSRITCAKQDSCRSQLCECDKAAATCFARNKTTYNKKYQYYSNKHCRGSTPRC

[2] = target: T2, Phospholipase A2, membrane associated (Homo sapiens) (UniProt P14555); test: Inhibition of PLA2 induced contraction of GP lung tissue (Guinea pig) (n=4); format: functional, tissue-based; details: Cavia porcellus, target entry is the homologue from another species
T2 sequence (whole entry): T1 sequence (P14555 whole entry)

Cavia porcellus = species: Cavia porcellus; test: Inhibition of AA (arachidonic acid) - induced contraction of GP lung tissue (n=4).; format: functional
[3] = target: T2, Phospholipase A2, membrane associated (Homo sapiens); test: Mole fraction as PLA2 IC50 concentration divided by total lipid concentration (1230 uM); format: functional
[4] = target: T2, Phospholipase A2, membrane associated (Homo sapiens); test: Inhibition of Human Nonpancreatic Secretory PLA2 through Chromogenic assay at 47ug/mL; format: functional

SMILES | IC50 [1] | Kb [2] | other results
CCc1c(C(=O)C(N)=O)c2c([N+](=O)[O-])cccc2n1Cc1ccccc1 | 37.8 µM | – | –
COc1ccc2c(c1)c(CC(=O)NN)c(C)n2C(c1ccccc1)c1ccccc1 | 40.2 µM | – | –
CCc1c(C(=O)C(N)=O)c2c(OC)cccc2n1Cc1ccccc1 | 0.55 µM | – | –
CONC(=O)Cc1c(C)n(Cc2ccccc2)c2ccc(OC)cc12 | 40 µM | – | –
COc1ccc2c(c1)c(CC(=O)NN)c(C)n2Cc1cccc(O)c1 | – | 5.96 µM | ED50 (Cavia porcellus): >30 µM
COc1ccc2c(c1)c(CC(N)=O)c(C)n2CCCc1ccccc1 | 11.1 µM | – | –
CNC(=O)Cc1c(C)n(Cc2ccccc2)c2ccc(OC)cc12 | 142 µM | – | –
CCc1c(C(=O)C(N)=O)c2cc(OC)ccc2n1Cc1ccccc1 | 2.56 µM | – | –
COc1ccc2c(c1)c(CC(N)=O)c(SC)n2Cc1ccccc1 | 0.45 µM | 7.93 µM | –
COc1ccc2c(c1)c(C(O)C(N)=O)c(C)n2Cc1ccccc1 (stereo unspecified) | 20.1 µM | – | –
COc1ccc2c(c1)c(CC(=O)NN)c(C)n2Cc1ccccc1-c1ccccc1 | – | > 10 µM | ED50 (Cavia porcellus): >10 µM
COc1ccc2c(c1)c(CC(=N)N)c(C)n2Cc1ccccc1 | 64.7 µM | – | –
COc1ccc2c(c1)c(CC(=O)NN)cn2Cc1ccccc1 | 4.9 µM | 5.64 µM | ED50 (Cavia porcellus): >10 µM
Cc1c(CC(=O)NN)c2ccccc2n1-c1ccccc1 | 38.2 µM | – | –
COc1ccc2c(c1)c(CC(N)=O)c(C)n2Cc1cccc(Cl)c1 | 0.91 µM | – | –
COc1ccc2c(c1)c(C(C)C(=O)NN)c(C)n2Cc1ccccc1 (stereo unspecified) | 32.6 µM | – | –
COc1ccc2c(c1)c(CC#N)c(C)n2Cc1ccccc1 | – | – | Mole fraction [3]: Mole fraction as PLA2 IC50 concentration divided by total lipid concentration (1230 uM); inhibition [4]: 45%
COc1ccc2c(c1)c(CC(N)=O)c(C)n2C(=O)c1ccccc1 | 7.21 µM | – | –
COc1ccc2c(c1)c(CC(=O)NN)c(Cl)n2Cc1ccccc1 | – | 0.85 µM | ED50 (Cavia porcellus): 9.37 µM
CCCCCCC(C(=O)NN)c1c(C)n(Cc2ccccc2)c2ccc(OC)cc12 (stereo unspecified) | 101 µM | – | –
CCc1c(CC(=O)NN)c2cc(OC)ccc2n1Cc1ccccc1-c1ccccc1 | 2.35 µM | 30.1 µM | ED50 (Cavia porcellus): >30 µM
CCc1c(C(O)C(N)=O)c2c(OC)cccc2n1Cc1ccccc1 (stereo unspecified) | 53 µM | – | –
COc1ccc2c(c1)c(CC(=O)NN)c(C)n2Cc1cccc(Cl)c1 | 1.36 µM | 1.13 µM | ED50 (Cavia porcellus): >30 µM
COc1ccc2c(c1)c(CC(=O)NN)c(C)n2Cc1cccc(N)c1 | 4.32 µM | – | –
CCc1c(CC(N)=O)c2c(OC)cccc2n1Cc1ccccc1 | 1.18 µM | – | –
COc1ccc2c(c1)c(CC(=O)NN)c(Br)n2Cc1ccccc1 | – | 0.76 µM | ED50 (Cavia porcellus): 7.32 µM

SMILES | IC50 [1] | Kb [2] | other results
Cc1c(CC(=O)NN)c2cc(C(=O)O)ccc2n1Cc1cccc(Cl)c1 | – | 1.39 µM | ED50 (Cavia porcellus): >30 µM
COc1ccc2c(c1)c(CCC(N)=O)c(C)n2Cc1ccccc1 | 28.1 µM | – | –
COc1ccc2c(c1)c(CC(=O)O)c(C)n2Cc1ccccc1 | 13.6 µM | – | –
CCCc1c(CC(=O)NN)c2cc(OC)ccc2n1Cc1ccccc1 | – | 27.1 µM | ED50 (Cavia porcellus): >30 µM
COc1ccc2c(c1)c(CC(=N)S)c(C)n2Cc1ccccc1 | 74.1 µM | – | –
COc1ccc2c(c1)c(CC(=O)NN)c(C1CC1)n2Cc1ccccc1 | 0.39 µM | – | –
CCC(C(=O)NN)c1c(C)n(Cc2ccccc2)c2ccc(OC)cc12 (stereo unspecified) | 24.2 µM | – | –
CCc1c(CC(N)=O)c2cc(OC)ccc2n1Cc1ccccc1 | – | 5.91 µM | ED50 (Cavia porcellus): >30 µM
COc1cccc2c1c(CC(=O)NN)c(C)n2Cc1ccccc1 | 0.55 µM | – | –
COc1ccc2c(C(=O)C(N)=O)c(C)n(Cc3ccccc3)c2c1 | 1.77 µM | – | –
COc1ccc2c(C(O)C(N)=O)c(C)n(Cc3ccccc3)c2c1 (stereo unspecified) | 121 µM | – | –
COc1ccc2c(c1)c(Cc1nnn[nH]1)c(C)n2Cc1ccccc1 | 84.7 µM | – | –
COc1ccc2c(c1)c(CC(N)=O)c(C)n2CC1CCCCC1 | – | 22.5 µM | ED50 (Cavia porcellus): 25.65 µM
COc1cccc2c1c(CC(N)=O)c(C)n2Cc1cccc(Cl)c1 | 1.38 µM | – | –
COc1ccc2c(c1)c(CC(=O)NN)c(C)n2Cc1cccc(OCc2ccccc2)c1 | – | 3.86 µM | ED50 (Cavia porcellus): >30 µM
COc1ccc2c(c1)c(CC(=O)NN)c(C)n2Cc1cccc(-c2ccccc2)c1 | – | 22.6 µM | –
CCCCCCCCCCn1c(C)c(CC(N)=O)c2cc(OC)ccc21 | 9.47 µM | – | –
CCCCCCCCCCn1c(C)c(CC(=O)NN)c2cc(OC)ccc21 | 9.43 µM | – | –
Cc1c(CC(N)=O)c2cc([N+](=O)[O-])ccc2n1Cc1ccccc1 | 1.51 µM | – | –
Cc1c(CC(N)=O)c2cc(N)ccc2n1Cc1ccccc1 | – | 1.98 µM | ED50 (Cavia porcellus): 14.5 µM
COC(=O)Cc1c(C)n(Cc2ccccc2)c2ccc(OC)cc12 | 116 µM | – | –
COc1cccc(Cn2c(C)c(CC(=O)NN)c3cc(OC)ccc32)c1 | 2.12 µM | – | –
COc1cccc2c1c(CC(=O)NN)c(C)n2Cc1cccc(Cl)c1 | 0.23 µM | – | –
COc1ccc2c(c1)c(C(=O)C(N)=O)c(C)n2Cc1ccccc1 | 1.23 µM | – | –
CCc1c(CC(=O)NN)c2cc(OC)ccc2n1Cc1ccccc1 | – | 2.04 µM | ED50 (Cavia porcellus): >30 µM
COc1ccc2c(c1)c(CC(=O)NN)c(SC)n2Cc1ccccc1 | 0.62 µM | – | –
